Patent US4740501A (priority 1985, dated 1988)

Experiments:
5-78 T-lymphoma = test: Tumor cell survival (trypan blue), continuous exposure; format: cell-based, Rabbit
Hairy cell leukemia = test: Survival of fresh human leukemic cells, continuous exposure; format: cell-based
AMML = test: as above; format: cell-based
L-1210 leukemia cells = test: Bioassay of tumorigenicity of in vitro treated tumor cells in syngeneic hosts; format: in vivo, BDf1 mice; details: for MEAN SURVIVAL TIME (MST) of recipients: L-1210, control 10
Description: Suspensions of untreated and tripeptide treated MJY-alpha mammary tumor, B-16 melanoma, and L-1210 leukemia cells were adjusted to a concentration of 1×10^7 cells/ml based on the initial tumor cell concentration before the tripeptide exposure. Tumor cells were inoculated into syngeneic hosts at a concentration of 1×10^6 cells in […]. Female BALB/c/Crgl recipients of MJY-alpha mammary tumor cells and male C57BL/6/Jx hosts receiving B16 melanoma cells were inoculated subcutaneously; BDf1 mice were given intraperitoneal injections of L-1210 cells. Subcutaneous tumors were measured along their long and short axes every 1 to 3 days; tumor size is reported as the product of the two measurements (mm^2). The examination periods for mice receiving L-1210, MJY-alpha and B-16 tumor grafts were 45, 80, and 85 days, respectively. All mice were autopsied at the time of death or sacrifice.

L-1210 leukemia = test: In vivo therapy of mice inoculated intraperitoneally with L-1210 leukemia; design: species or system DBA/2 mice
P388/L-PAM leukemia = test: cells; format: cell-based, mice
L1210 leukemia cells = test: Tumorigenicity of in vitro treated leukemia cells in BDF1 recipients; format: in vivo, BDF1 mice; details: for MST: L1210, control 10
Protocol: All in vitro PTT.119 and L-PAM treatment of cells were carried out at 37° C. in the appropriate complete growth media containing 10% or 18% sera. L1210, L1210/L-PAM and P388/L-PAM cell suspensions of 1×10^6 cells/ml were subjected to a single 15, 30 or 60 min pulse exposure to 3.75, 7.5 and 15 uM PTT.119 or L-PAM. Following treatment, media were removed by pelleting the cells at 200×g for 9 min at 5° C. Cells were then gently washed twice with fresh growth media and finally resuspended in RPMI-1630 medium with 10% FBS for in vitro cultures.
Suspensions of PTT.119 or L-PAM treated cells, and control leukemia cells were adjusted to 1×10^7 cells/ml based on tumor cell concentrations prior to drug exposure. Syngeneic female BDF1 (BALB/c×DBA/2)f, mice weighing 20 to 26 g received intraperitoneal injections of 1×10^6 cells. Mice were monitored daily throughout the 45 day examination period and were autopsied at the time of death.

[1] = tested on: L1210/L-PAM leukemia cells; design: species or system BDF1 mice; details: mouse, in vivo
L1210S = test: cells; format: cell-based
[2] = tested on: MJY-alpha mammary tumor cells; test: PTT.119 induced resistance test, long-term low dose culture; format: cell-based
MMTV = format: cell-based, mouse
[3] = single dose 10, 15, and 20 mg/kg 48 hours after inoculation

Compound: CCOC(=O)[C@H](CCSC)NC(=O)[C@H](Cc1cccc(N(CCCl)CCCl)c1)NC(=O)[C@@H](N)Cc1ccc(F)cc1.Cl [PTT.119, 3-(p-fluorophenyl)-L-alanyl-3-[m-bis(2-chloroethyl)aminophenyl]-L-alanyl-L-methionine ethyl ester hydrochloride]
- % tumor cell survival (5-78 T-lymphoma; 5 ug/ml, 1 hr): 100%
- % tumor cell survival (5-78 T-lymphoma; 5 ug/ml, 4 hr): 88%
- % tumor cell survival (5-78 T-lymphoma; 5 ug/ml, 24 hr): 66%
- % tumor cell survival (5-78 T-lymphoma; 10 ug/ml, 1 hr): 89%
- % tumor cell survival (5-78 T-lymphoma; 10 ug/ml, 4 hr): 61%
- % tumor cell survival (5-78 T-lymphoma; 10 ug/ml, 24 hr): 49%
- % tumor cell survival (5-78 T-lymphoma; 25 ug/ml, 1 hr): 75%
- % tumor cell survival (5-78 T-lymphoma; 25 ug/ml, 4 hr): 32%
- % tumor cell survival (5-78 T-lymphoma; 25 ug/ml, 8 hr): 14%
- % tumor cell survival (5-78 T-lymphoma; 25 ug/ml, 24 hr): 6%
- % tumor cell survival (5-78 T-lymphoma; 50 ug/ml, 1 hr): 57%
- % tumor cell survival (5-78 T-lymphoma; 50 ug/ml, 4 hr): 4%
- % tumor cell survival (5-78 T-lymphoma; 50 ug/ml, 24 hr): 2%
- % tumor cell survival (Hairy cell leukemia; 5 ug/ml, 1 hr): 100%
- % tumor cell survival (Hairy cell leukemia; 5 ug/ml, 4 hr): 80%
- % tumor cell survival (Hairy cell leukemia; 5 ug/ml, 24 hr): 34%
- % tumor cell survival (Hairy cell leukemia; 10 ug/ml, 1 hr): 100%
- % tumor cell survival (Hairy cell leukemia; 10 ug/ml, 4 hr): 71%
- % tumor cell survival (Hairy cell leukemia; 10 ug/ml, 24 hr): 81%
- % tumor cell survival (Hairy cell leukemia; 25 ug/ml, 1 hr): 92%
- % tumor cell survival (Hairy cell leukemia; 25 ug/ml, 4 hr): 71%
- % tumor cell survival (Hairy cell leukemia; 25 ug/ml, 24 hr): 12%
- % tumor cell survival (Hairy cell leukemia; 50 ug/ml, 1 hr): 37%
- % tumor cell survival (Hairy cell leukemia; 50 ug/ml, 4 hr): 21%
- % tumor cell survival (Hairy cell leukemia; 50 ug/ml, 24 hr): 7%
- % tumor cell survival (AMML; 1 ug/ml, 1 hr): 95%
- % tumor cell survival (AMML; 1 ug/ml, 4 hr): 85%
- % tumor cell survival (AMML; 1 ug/ml, 24 hr): 66%
- % tumor cell survival (AMML; 5 ug/ml, 1 hr): 50%
- % tumor cell survival (AMML; 5 ug/ml, 4 hr): 52%
- % tumor cell survival (AMML; 5 ug/ml, 24 hr): 6%
- % tumor cell survival (AMML; 10 ug/ml, 1 hr): 60%
- % tumor cell survival (AMML; 10 ug/ml, 4 hr): 41%
- % tumor cell survival (AMML; 10 ug/ml, 24 hr): 21%
- % tumor cell survival (AMML; 25 ug/ml, 1 hr): 20%
- % tumor cell survival (AMML; 25 ug/ml, 4 hr): 15%
- % tumor cell survival (AMML; 25 ug/ml, 24 hr): 14%
- % tumor cell survival (AMML; 50 ug/ml, 1 hr): 4%
- % tumor cell survival (AMML; 50 ug/ml, 4 hr): 3%
- % tumor cell survival (AMML; 50 ug/ml, 24 hr): 4%
- MEAN SURVIVAL TIME (MST) of recipients (L-1210 leukemia cells; 1 ug/ml, 15 min): 10 days
- MEAN SURVIVAL TIME (MST) of recipients (L-1210 leukemia cells; 1 ug/ml, 30 min): 10 days
- MEAN SURVIVAL TIME (MST) of recipients (L-1210 leukemia cells; 1 ug/ml, 60 min): 11 days
- MEAN SURVIVAL TIME (MST) of recipients (L-1210 leukemia cells; 1 ug/ml, 120 min): 13 days
- MEAN SURVIVAL TIME (MST) of recipients (L-1210 leukemia cells; 5 ug/ml, 15 min): 13 days
- MEAN SURVIVAL TIME (MST) of recipients (L-1210 leukemia cells; 5 ug/ml, 30 min): 21 days
- MEAN SURVIVAL TIME (MST) of recipients (L-1210 leukemia cells; 5 ug/ml, 60 min): 32 days
- MEAN SURVIVAL TIME (MST) of recipients (L-1210 leukemia cells; 10 ug/ml, 15 min): 8 days
- ILS (increased life span) (L-1210 leukemia cells; L-1210 cells treated with 5 ug for 30 min): 110%
- ILS (increased life span) (L-1210 leukemia cells; L-1210 cells treated with 5 ug for 60 min): 220%
- tumor growth in recipient mice (L-1210 leukemia cells; L-1210 cells treated with 5 ug for 2 hr): No tumor growth
- tumor growth in recipient mice (L-1210 leukemia cells; L-1210 cells treated with 10 ug for 30 min or longer): No tumor growth
- mean survival time (L-1210 leukemia; single dose 10, 15, and 20 mg/kg 48 hours after 10^6 L-1210 cells i.p., from 8 days): 30 days
- apparent cure, share of treated animals (L-1210 leukemia; [3]): 30%
- increase of the mean survival time (L-1210 leukemia; [3]): 275%
- T.C.D.100 (P388/L-PAM leukemia): 22.5
- surviving fraction at end of examination period (P388/L-PAM leukemia): 0-0.5%
- percentage of viable cells (P388/L-PAM leukemia; 3.75 µM): 0-1%
- IC50 (P388/L-PAM leukemia; Mus musculus, P388, 24 h, read-out: T.C.D.50): 5 µM
- MST (L1210 leukemia cells; 7.5 uM, 30 min): 21 days
- MST (L1210 leukemia cells; 7.5 uM, 60 min): 32 days
- MST (L1210 leukemia cells; 15 uM, 15 min): 8 days
- mice free of tumor at end of 45-day examination period (L1210 leukemia cells; L1210 cells, 7.5 and 15 uM, every group): 80-100%
- tumorigenicity of L1210/L-PAM cells [1]: Complete abrogation
- IC50 (L1210S; 24 h, read-out: T.C.D.50): 2.38 µM
- T.C.D.100 (L1210S; L1210S, 24 hours exposure): 7.5 µM
- survival of monolayers in continuous treatment ([2]; 15 uM): did not survive beyond the second passage
- dose response curves of treated lines vs previously untreated MJY-alpha cells ([2]; alpha-0.15, alpha-1.5, alpha-7.5, 8 months, 24 h challenge with 1.5-75 uM): No alteration
- less MMTV produced compared to controls (labeled uridine) (MMTV): 37%
- reduction of MMTV replication (MMTV): 27%
- reduction of viral replication (labeled uridine) (MMTV): 42%
